Laboratory results from US10798941B2, “Microbiocidal oxadiazole derivatives” (SYNGENTA PARTICIPATIONS AG, priority 2016, dated 2020).

Columns and labels:
[1] = test system: Puccinia recondita f. Sp. Tritici; assay: Puccinia recondita f. sp. tritici / wheat / leaf disc preventative (brown rust); type: in vivo; conditions: foliar, 168 h, 200 ppm in the applied formulation, wheat leaf segments cv. Kanzler, preventative, inoculated 1 day after application, assessed 7 to 9 days after application, vs untreated, read-out: disease control
Method in brief: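 Wheat cv. Kanzler leaf segments on agar were sprayed with formulated compound in water, then inoculated with spores 1 day later. Incubated at 19° C, 75% rh, 12 h light/12 h dark; percent disease control versus untreated scored 7 to 9 days after application.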

[2] = test system: Puccinia recondita f. Sp. Tritici; assay: Puccinia recondita f. sp. tritici / wheat / leaf disc curative (brown rust); type: in vivo; conditions: foliar, 144 h, 200 ppm in the applied formulation, wheat leaf segments cv. Kanzler, applied 1 day after inoculation, assessed 6 to 8 days after application, vs untreated, read-out: disease control
Method in brief: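 Spray application came one day after spore inoculation of Kanzler wheat leaf segments kept on agar. Conditions: 19° C, 75% relative humidity, dark before treatment and 12 h light/12 h dark after. Efficacy = % disease control compared with untreated, 6–8 days post-application.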

Phakopsora pachyrhizi = Phakopsora pachyrhizi / soybean / leaf disc preventative (Asian soybean rust); type: in vivo; conditions: foliar, 288 h, 200 ppm in the applied formulation, soybean leaf disks, inoculated one day after application, assessed 12 to 14 days after application, vs untreated, read-out: disease control
Method in brief: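 Read-out is percent disease control relative to untreated check discs, assessed once untreated discs show adequate disease, 12 to 14 days after application. Compounds, tested at 200 ppm in the applied formulation, are sprayed onto soybean leaf discs one day before inoculation with a spore suspension.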

[3] = test system: Glomerella Lagenarium (Colletotrichum Lagenarium); assay: Glomerella lagenarium (Colletotrichum lagenarium) liquid culture / cucumber / preventative (anthracnose); type: cell-based; conditions: Colletotrichum orbiculare; 20 ppm in the applied formulation; liquid culture in PDB, 24° C., inhibition of growth measured photometrically 3 to 4 days after application, vs untreated; read-out: disease control
Method in brief: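 Conidia from cryogenic storage were mixed into potato dextrose broth. This was added to compound diluted from DMSO into 0.025% Tween20, tested at 20 ppm. Plates were incubated in the dark at 24 °C and 96% relative humidity, and growth was read photometrically after 2–7 days as % activity versus untreated check.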

Uromyces viciae-Fabae = assay: Uromyces viciae-fabae / field bean / leaf disc preventative (faba-bean rust); type: in vivo; conditions: foliar, 288 h, 100 ppm in the applied formulation, field bean leaf discs, inoculated two hours after application, assessed 12 days after application, vs untreated, read-out: disease control
Method: Leaf disks or leaf segments of various plant species are cut from plants grown in a greenhouse. The cut leaf disks or segments are placed in multiwell plates (24-well format) onto water agar. The leaf disks are sprayed with a test solution before (preventative) or after (curative) inoculation. Compounds to be tested are prepared as DMSO solutions (max. 10 mg/ml) which are diluted to the appropriate concentration with 0.025% Tween20 just before spraying. The inoculated leaf disks or segments are incubated under defined conditions (temperature, relative humidity, light, etc.) according to the respective test system. A single evaluation of disease level is carried out 3 to 14 days after inoculation, depending on the pathosystem. Percent disease control relative to the untreated check leaf disks or segments is then calculated.
Field bean leaf discs are placed on water agar in multiwell plates (96-well format) and 10 μl of the formulated test compound diluted in acetone and a spreader pipetted onto the leaf disc. Two hours after application leaf discs are inoculated by spraying a spore suspension on the lower leaf surface. The leaf discs are incubated in a climate cabinet at 22° C. with 18 hour day and 70% relative humidity. The activity of a compound is assessed as percent disease control compared to untreated when an appropriate level of disease damage appears in untreated check leaf disks (12 days after application).
The following compounds at 100 ppm in the applied formulation give at least 80% disease control in this test when compared to untreated control leaf discs under the same conditions, which show extensive disease development.

| melting point [°C] | Structure (SMILES) | pest or weed control at 200 ppm [1] [%] | pest or weed control at 200 ppm [2] [%] | pest or weed control at 200 ppm (Phakopsora pachyrhizi) [%] | inhibition of growth at 20 ppm [3] [%] | pest or weed control at 100 ppm (Uromyces viciae-Fabae) [%] |
| --- | --- | --- | --- | --- | --- | --- |
| 115.5 to 117.2 | FC(F)(F)c1nc(-c2ccc(Cn3cc(C4CC4)nn3)cc2)no1 [Compound 1.5, 3-[4-[(4-cyclopropyltriazol-1-yl)methyl]phenyl]-5-(trifluoromethyl)-1,2,4-oxadiazole] | ≥ 80 | ≥ 80 | ≥ 80 | ≥ 80 | ≥ 80 |
| 108.7 to 110.3 | Cn1cncc1-c1cn(Cc2ccc(-c3noc(C(F)(F)F)n3)cc2)nn1 [Compound 1.6, 3-[4-[[4-(3-methylimidazol-4-yl)triazol-1-yl]methyl]phenyl]-5-(trifluoromethyl)-1,2,4-oxadiazole] | ≥ 80 | ≥ 80 | ≥ 80 | ≥ 80 | ≥ 80 |
| 72 to 77 | FC(F)(F)c1nc(-c2ccc(Cn3cncn3)cc2)no1 [Compound 1.19, 3-[4-(1,2,4-triazol-1-ylmethyl)phenyl]-5-(trifluoromethyl)-1,2,4-oxadiazole] | ≥ 80 | ≥ 80 | ≥ 80 | ≥ 80 | ≥ 80 |

More lines, now with the values behind:

| Structure (SMILES) | melting point [°C] | pest or weed control at 200 ppm [1] [%] | pest or weed control at 200 ppm [2] [%] | pest or weed control at 200 ppm (Phakopsora pachyrhizi) [%] | inhibition of growth at 20 ppm [3] [%] | pest or weed control at 100 ppm (Uromyces viciae-Fabae) [%] |
| --- | --- | --- | --- | --- | --- | --- |
| CCn1cc(-c2cn(Cc3ccc(-c4noc(C(F)(F)F)n4)cc3)nn2)c(C)n1 [Compound 1.1, 3-[4-[[4-(1-ethyl-3-methyl-pyrazol-4-yl)triazol-1-yl]methyl]phenyl]-5-(trifluoromethyl)-1,2,4-oxadiazole] | 116.2 to 118.2 | ≥ 80 | ≥ 80 | ≥ 80 | ≥ 80 | ≥ 80 |
| Cc1cc(C)n(Cc2ccc(-c3noc(C(F)(F)F)n3)cc2)n1 [Compound 1.15, 3-[4-[(3,5-dimethylpyrazol-1-yl)methyl]phenyl]-5-(trifluoromethyl)-1,2,4-oxadiazole] | 53 to 58 | ≥ 80 | ≥ 80 | ≥ 80 | ≥ 80 | ≥ 80 |
| FC(F)(F)c1nc(-c2ccc(Cn3cccn3)cc2)no1 [Compound 1.16, 3-[4-(pyrazol-1-ylmethyl)phenyl]-5-(trifluoromethyl)-1,2,4-oxadiazole] | 36 to 41 | ≥ 80 | ≥ 80 | ≥ 80 | ≥ 80 | ≥ 80 |
| FC(F)(F)c1nc(-c2ccc(Cn3ccnc3)cc2)no1 [Compound 1.18, 3-[4-(imidazol-1-ylmethyl)phenyl]-5-(trifluoromethyl)-1,2,4-oxadiazole] | 45 to 55 | ≥ 80 | ≥ 80 | ≥ 80 | ≥ 80 | ≥ 80 |
